Patent US10065970B2 (Genentech, Inc., priority 2015, dated 2018)
Counter-ions that a name gives are not always drawn.

Molecular target: PI3Kα (alpha) (Homo sapiens (Human), UniProt P42336)
Experiment: p110α (alpha) PI3K Binding Assay (ADP-Glo lipid kinase reaction)
Assay type: biochemical
Settings: PI3K alpha 0.2 nM, ATP 40 μM, PIP2:3PS 50 μM, 120 min, room temperature; Ki by Morrison Equation; read-out: PI3Kα-(alpha) ATP (Ki) micromolar
Outline: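 Enzyme with PIP2:3PS lipid substrate and ATP/MgCl2 in 50 mM HEPES, 50 mM NaCl, 3 mM MgCl2, 0.01% BSA, 1% DMSO, 120 min at room temperature. ADP formed detected by ADP-Glo luminescence. Ki from 10-point dose-response curves via the Morrison equation.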

Sequence of PI3Kα (alpha) (P42336 whole entry): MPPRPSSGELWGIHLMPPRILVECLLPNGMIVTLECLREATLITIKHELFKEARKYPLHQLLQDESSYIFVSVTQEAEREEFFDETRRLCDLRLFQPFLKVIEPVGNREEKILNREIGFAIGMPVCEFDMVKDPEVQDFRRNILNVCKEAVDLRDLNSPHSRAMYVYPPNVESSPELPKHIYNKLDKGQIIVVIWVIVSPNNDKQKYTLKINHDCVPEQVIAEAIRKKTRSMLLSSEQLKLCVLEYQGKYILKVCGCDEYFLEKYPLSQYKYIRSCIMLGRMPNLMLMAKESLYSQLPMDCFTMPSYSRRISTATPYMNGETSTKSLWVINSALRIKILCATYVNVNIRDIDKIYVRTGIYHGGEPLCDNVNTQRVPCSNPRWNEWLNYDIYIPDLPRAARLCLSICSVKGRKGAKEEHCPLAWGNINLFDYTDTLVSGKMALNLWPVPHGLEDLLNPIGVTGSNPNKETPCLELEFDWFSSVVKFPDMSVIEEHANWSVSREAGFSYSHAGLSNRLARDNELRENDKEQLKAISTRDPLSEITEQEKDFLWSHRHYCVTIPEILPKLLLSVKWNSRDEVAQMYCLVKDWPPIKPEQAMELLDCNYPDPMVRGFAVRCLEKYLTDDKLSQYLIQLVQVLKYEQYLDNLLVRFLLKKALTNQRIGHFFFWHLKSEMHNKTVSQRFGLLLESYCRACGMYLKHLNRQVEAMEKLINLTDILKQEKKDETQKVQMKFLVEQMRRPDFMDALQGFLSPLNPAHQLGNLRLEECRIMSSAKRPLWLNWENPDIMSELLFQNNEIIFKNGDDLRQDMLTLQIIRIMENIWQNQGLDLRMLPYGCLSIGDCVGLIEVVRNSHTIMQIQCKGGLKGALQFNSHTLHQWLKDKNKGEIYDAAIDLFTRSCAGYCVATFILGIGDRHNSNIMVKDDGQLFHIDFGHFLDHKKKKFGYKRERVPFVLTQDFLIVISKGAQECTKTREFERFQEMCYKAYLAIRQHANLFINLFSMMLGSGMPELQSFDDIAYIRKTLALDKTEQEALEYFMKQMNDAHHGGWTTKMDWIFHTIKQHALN
Sequence of PI3Kα (alpha) (P27986 whole entry partner): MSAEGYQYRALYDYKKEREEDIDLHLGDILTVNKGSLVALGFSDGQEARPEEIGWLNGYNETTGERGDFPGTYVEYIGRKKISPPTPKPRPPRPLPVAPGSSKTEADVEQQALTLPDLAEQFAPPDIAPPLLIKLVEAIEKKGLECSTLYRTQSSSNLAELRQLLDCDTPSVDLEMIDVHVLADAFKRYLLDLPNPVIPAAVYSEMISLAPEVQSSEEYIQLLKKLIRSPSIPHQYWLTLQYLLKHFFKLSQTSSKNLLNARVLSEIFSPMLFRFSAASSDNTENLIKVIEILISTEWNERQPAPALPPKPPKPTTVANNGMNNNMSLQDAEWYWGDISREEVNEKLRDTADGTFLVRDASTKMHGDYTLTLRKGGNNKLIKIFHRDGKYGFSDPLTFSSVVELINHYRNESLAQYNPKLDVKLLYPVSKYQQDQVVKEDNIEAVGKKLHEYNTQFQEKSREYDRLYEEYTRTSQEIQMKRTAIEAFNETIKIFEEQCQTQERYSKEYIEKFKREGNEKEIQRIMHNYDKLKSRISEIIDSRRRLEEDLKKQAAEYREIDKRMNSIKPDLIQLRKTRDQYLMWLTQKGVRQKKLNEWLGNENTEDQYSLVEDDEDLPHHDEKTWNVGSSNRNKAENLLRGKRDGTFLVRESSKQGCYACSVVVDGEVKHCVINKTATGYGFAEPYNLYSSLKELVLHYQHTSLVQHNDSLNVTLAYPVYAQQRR

Structure (SMILES) | Ki [nM]
COc1cnc2cc(-c3nc4cc(N[C@H](C(N)=O)C5CC5)cc5c4n3CCCO5)ccc2n1 [Example 173, (S)-2-Cyclopropyl-2-((1-(2-methoxyquinoxalin-6-yl)-8,9-dihydro-7H-6-oxa-2,9a-diazabenzo[cd]azulen-4-yl)amino)acetamide] | 46.5
N#CC1CCCN(c2nc3cc(NC(C(N)=O)C4CC4)cc4c3n2CCCO4)C1 [Example 174, (S)-2-[1-(3-Cyanopiperidin-1-yl)-8,9-dihydro-7H-6-oxa-2,9a-diazabenzo[cd]azulen-4-ylamino]-2-cyclopropylacetamide] | 262
CS(=O)(=O)c1cncc(-c2nc3cc(N[C@H](C(N)=O)C4CC4)cc4c3n2CCCO4)c1 [Example 175, (S)-2-Cyclopropyl-2-((1-(5-(methylsulfonyl)pyridin-3-yl)-8,9-dihydro-7H-6-oxa-2,9a-diazabenzo[cd]azulen-4-yl)amino)acetamide] | 26
NC(=O)[C@@H](Nc1cc2c3c(c1)nc(-c1ccnc4[nH]cnc14)n3CCCO2)C1CC1 [Example 176, (S)-2-((1-(3H-Imidazo[4,5-b]pyridin-7-yl)-8,9-dihydro-7H-6-oxa-2,9a-diazabenzo[cd]azulen-4-yl)amino)-2-cyclopropylacetamide] | 326
NC(=O)[C@@H](Nc1cc2c3c(c1)nc(-c1ccnc4sccc14)n3CCCO2)C1CC1 [Example 177, (S)-2-Cyclopropyl-2-((1-(thieno[2,3-b]pyridin-4-yl)-8,9-dihydro-7H-6-oxa-2,9a-diazabenzo[cd]azulen-4-yl)amino)acetamide] | 234
NC(=O)[C@@H](Nc1cc2c3c(c1)nc(-c1ccc4ncsc4c1)n3CCCO2)C1CC1 [Example 178, (S)-2-((1-(Benzo[d]thiazol-6-yl)-8,9-dihydro-7H-6-oxa-2,9a-diazabenzo[cd]azulen-4-yl)amino)-2-cyclopropylacetamide] | 32.2
NC(=O)[C@@H](Nc1cc2c3c(c1)nc(N1CCc4nccnc4C1)n3CCCO2)C1CC1 [Example 179, (S)-2-Cyclopropyl-2-((1-(7,8-dihydropyrido[3,4-b]pyrazin-6(5H)-yl)-8,9-dihydro-7H-6-oxa-2,9a-diazabenzo[cd]azulen-4-yl)amino)acetamide] | 154
NC(=O)[C@@H](Nc1cc2c3c(c1)nc(N1CCCOCC1)n3CCCO2)C1CC1 [Example 180, (S)-2-((1-(1,4-Oxazepan-4-yl)-8,9-dihydro-7H-6-oxa-2,9a-diazabenzo[cd]azulen-4-yl)amino)-2-cyclopropylacetamide] | 664
CC(C)(C(N)=O)n1cc(-c2nc3cc(N[C@H](C(N)=O)C4CC4)cc4c3n2CCCO4)cn1 [Example 181, 2-(4-{4-[((S)-Carbamoylcyclopropylmethyl)amino]-8,9-dihydro-7H-6-oxa-2,9a-diazabenzo[cd]azulen-1-yl}pyrazol-1-yl)isobutyramide formic acid salt] | 195
NC(=O)[C@@H](Nc1cc2c3c(c1)nc(N1CCCC(O)C1)n3CCCO2)C1CC1 (stereo partly drawn) [Example 182, (S)-2-Cyclopropyl-2-[1-(3-hydroxypiperidin-1-yl)-8,9-dihydro-7H-6-oxa-2,9a-diazabenzo[cd]azulen-4-ylamino]acetamide] | 398
CNc1nc2cc(-c3nc4cc(N5CCC[C@H]5C(N)=O)cc5c4n3CCCO5)ccc2o1 [Example 186, (S)-1-(1-(2-(methylamino)benzo-[d]oxazol-5-yl)-8,9-dihydro-7H-6-oxa-2,9a-diazabenzo[cd]azulen-4-yl)pyrrolidine-2-carboxamide] | 6.93
NC(=O)c1ccc(-c2nc3cc(N[C@H](C(N)=O)C4CC4)cc4c3n2CCCO4)cc1F [Example 188, (S)-4-(4-((2-Amino-1-cyclopropyl-2-oxoethyl)amino)-8,9-dihydro-7H-6-oxa-2,9a-diazabenzo[cd]azulen-1-yl)-2-fluorobenzamide] | 81.4
NC(=O)c1ccc(-c2nc3cc(N[C@H](C(N)=O)C4CC4)cc4c3n2CCCO4)cn1 [Example 191, (S)-5-(4-((2-Amino-1-cyclopropyl-2-oxoethyl)amino)-8,9-dihydro-7H-6-oxa-2,9a-diazabenzo[cd]azulen-1-yl)picolinamide] | 105
Nc1nc2cc(-c3nc4c(F)c(Br)cc5c4n3CCCO5)ccc2o1 [Example 193, 5-(4-Bromo-3-fluoro-8,9-dihydro-7H-6-oxa-2,9a-diazabenzo[cd]azulen-1-yl)benzo[d]oxazol-2-amine] | 5.17
NC(=O)[C@@H](Nc1cc2c3c(c1)nc(-c1ccnc4c1OCO4)n3CCCO2)C1CC1 [Example 195, (S)-2-((1-([1,3]Dioxolo[4,5-b]pyridin-7-yl)-8,9-dihydro-7H-6-oxa-2,9a-diazabenzo[cd]azulen-4-yl)amino)-2-cyclopropylacetamide] | 194
NC(=O)[C@@H](Nc1cc2c3c(c1)nc(-c1ccc4oc(=O)[nH]c4c1)n3CCCO2)C1CC1 [Example 196, (S)-2-Cyclopropyl-2-((1-(2-oxo-2,3-dihydrobenzo[d]oxazol-5-yl)-8,9-dihydro-7H-6-oxa-2,9a-diazabenzo[cd]azulen-4-yl)amino)acetamide] | 314
NC(=O)[C@@H](Nc1cc2c3c(c1)nc(-c1ccc4nc(Cl)nn4c1)n3CCCO2)C1CC1 [Example 197, (S)-2-((1-(2-Chloro-[1,2,4]triazolo[1,5-a]pyridin-6-yl)-8,9-dihydro-7H-6-oxa-2,9a-diazabenzo[cd]azulen-4-yl)amino)-2-cyclopropylacetamide] | 27.2
OCc1cnc2cc(-c3nc4cc(Br)cc5c4n3CCCO5)ccc2n1 [Example 198, (6-(4-Bromo-8,9-dihydro-7H-6-oxa-2,9a-diazabenzo[cd]azulen-1-yl)quinoxalin-2-yl)methanol] | 677
NC(=O)[C@@H]1CCCN1c1cc2c3c(c1)nc(-c1ccc4[nH]cnc4c1)n3CCCO2 [Example 199, (S)-1-(1-(1H-Benzo[d]imidazol-5-yl)-8,9-dihydro-7H-6-oxa-2,9a-diazabenzo[cd]azulen-4-yl)pyrrolidine-2-carboxamide] | 33.2
NC(=O)[C@@H]1CCCN1c1cc2c3c(c1)nc(-c1ccnc4[nH]nnc14)n3CCCO2 [Example 206, (S)-1-(1-(3H-[1,2,3]Triazolo[4,5-b]pyridin-7-yl)-8,9-dihydro-7H-6-oxa-2,9a-diazabenzo[cd]azulen-4-yl)pyrrolidine-2-carb oxamide] | 25.9

These reach a lower Ki. Values come first.

Ki [nM] | Structure (SMILES)
0.491 | NC(=O)[C@@H](Nc1cc2c3c(c1)nc(-c1ccc4sc(N)nc4c1)n3CCCO2)C1CC1 [Example 184, (S)-2-((1-(2-Aminobenzo[d]thiazol-5-yl)-8,9-dihydro-7H-6-oxa-2,9a-diazabenzo[cd]azulen-4-yl)amino)-2-cyclopropylacetamide]
2.01 | CNc1nc2cc(-c3nc4cc(N[C@@H](C)C(N)=O)cc5c4n3CCCO5)ccc2o1 [Example 185, (S)-2-((1-(2-(Methylamino)benzo[d]oxazol-5-yl)-8,9-dihydro-7H-6-oxa-2,9a-diazabenzo[cd]azulen-4-yl)amino)propanamide]
0.056 | NC(=O)[C@@H](Nc1cc2c3c(c1)nc(-c1ccc4nc(N)cnc4c1)n3CCCO2)C1CC1 [Example 187, (S)-2-((1-(2-Aminoquinoxalin-6-yl)-8,9-dihydro-7H-6-oxa-2,9a-diazabenzo[cd]azulen-4-yl)amino)-2-cyclopropylacetamide]
0.15 | NC(=O)[C@@H](Nc1cc2c3c(c1)nc(-c1ccc(-c4nc[nH]n4)cc1)n3CCCO2)C1CC1 [Example 190, (S)-2-((1-(4-(1H-1,2,4-Triazol-3-yl)phenyl)-8,9-dihydro-7H-6-oxa-2,9a-diazabenzo[cd]azulen-4-yl)amino)-2-cyclopropylacetamide]
1.64 | Nc1nc2cc(-c3nc4cc(NC5CC(F)(F)C5)cc5c4n3CCCO5)ccc2o1 [Example 192, 1-(2-Aminobenzo[d]oxazol-5-yl)-N-(3,3-difluorocyclobutyl)-8,9-dihydro-7H-6-oxa-2,9a-diazabenzo[cd]azulen-4-amine]
0.026 | NC(=O)[C@@H]1CCCN1c1cc2c3c(nc(-c4ccc5oc(N)nc5c4)n3CCCO2)c1F [Example 194, (S)-1-(1-(2-Aminobenzo[d]oxazol-5-yl)-3-fluoro-8,9-dihydro-7H-6-oxa-2,9a-diazabenzo[cd]azulen-4-yl)pyrrolidine-2-carb oxamide]
0.717 | NC(=O)[C@@H](Nc1cc2c3c(c1)nc(-c1ccc4nc(N)nn4c1)n3CCCO2)C1CC1 [Example 201, (S)-2-((1-(2-Amino-[1,2,4]triazolo[1,5-a]pyridin-6-yl)-8,9-dihydro-7H-6-oxa-2,9a-diazabenzo[cd]azulen-4-yl)amino)-2-cyclopropylacetamide]
< 0.02 | C[C@H](Oc1cc2c3c(c1)nc(-c1ccc4oc(N)nc4c1)n3CCCCO2)C(N)=O [Example 204, (S)-2-((1-(2-Aminobenzo[d]oxazol-5-yl)-7,8,9,10-tetrahydro-6-oxa-2,10a-diazacycloocta[cd]inden-4-yl)oxy)propanamide]
0.191 | Cc1cc(-c2nc3cc(N[C@H](C(N)=O)C4CC4)cc4c3n2CCCO4)cc2nc(N)oc12 [Example 205, (S)-2-((1-(2-Amino-7-methylbenzo[d]oxazol-5-yl)-8,9-dihydro-7H-6-oxa-2,9a-diazabenzo[cd]azulen-4-yl)amino)-2-cyclopropylacetamide]
0.988 | NC(=O)[C@@H](Nc1cc2c3c(c1)nc(-c1ccc4nc(N)oc4c1)n3CCCO2)C1CC1 [Example 207, (S)-2-((1-(2-Aminobenzo[d]oxazol-6-yl)-8,9-dihydro-7H-6-oxa-2,9a-diazabenzo[cd]azulen-4-yl)amino)-2-cyclopropylacetamide]
< 0.02 | NC(=O)[C@@H](Nc1cc2c3c(c1)nc(-c1ccc4oc(N)nc4c1)n3CCO2)C1CC1 [Example 208, (S)-2-((2-(2-Aminobenzo[d]oxazol-5-yl)-3,4-dihydro-5-oxa-1,2a-diazaacenaphthylen-7-yl)amino)-2-cyclopropylacetamide]
